Test results as given in patent US12325697B2 (Nimbus Clio, Inc., priority 2021, dated 2025).

Key:
[1] = target: Recombinant human Cbl-b (aa 36-427) (Homo sapiens (Human), UniProt Q13191); assay: Cbl-b Biochemical Assay (TR-FRET); settings: read-out: TR-FRET hCbl-b IC50
Method in brief: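 IC50 from 4-parameter fit of % inhibition (DMSO max, reference-inhibitor min), duplicate ten-point series. Compound preincubated with 6 nM Cbl-b, then Src-Zap70 (1-2.5 nM)/0.5 mM ATP reaction 60 min RT; EDTA quench with labelled UBE2D2-Ub and streptavidin-terbium, 60 min, HTRF at 520 nm.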

[2] = target: Recombinant human c-Cbl (aa 47-435) (Homo sapiens (Human), UniProt P22681); assay: c-Cbl Biochemical Assay (TR-FRET)
Method in brief: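 TR-FRET binding of UBE2D2-Ub-Bodipy (100 nM) to biotinylated c-Cbl (aa 47-435, 6 nM) via Streptavidin-Tb, measured after c-Cbl activation by Src-Zap70 with 0.5 mM ATP (60-90 min RT, 30 min compound preincubation). Ten-point half-log dilutions, 1% DMSO; IC50 by 4-parameter fit of normalized inhibition.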

Sequence of Recombinant human c-Cbl (aa 47-435) (P22681 47-435): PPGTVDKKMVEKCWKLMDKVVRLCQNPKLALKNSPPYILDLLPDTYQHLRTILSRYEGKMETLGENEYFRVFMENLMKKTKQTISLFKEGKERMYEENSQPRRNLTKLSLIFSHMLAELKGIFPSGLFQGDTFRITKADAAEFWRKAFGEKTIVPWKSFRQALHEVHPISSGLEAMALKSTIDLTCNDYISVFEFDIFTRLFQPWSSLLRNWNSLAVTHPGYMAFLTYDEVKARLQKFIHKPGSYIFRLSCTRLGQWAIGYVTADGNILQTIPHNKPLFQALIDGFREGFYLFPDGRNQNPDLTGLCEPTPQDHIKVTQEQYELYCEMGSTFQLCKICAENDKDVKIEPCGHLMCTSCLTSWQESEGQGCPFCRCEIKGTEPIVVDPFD
Sequence of Recombinant human Cbl-b (aa 36-427) (Q13191 36-427): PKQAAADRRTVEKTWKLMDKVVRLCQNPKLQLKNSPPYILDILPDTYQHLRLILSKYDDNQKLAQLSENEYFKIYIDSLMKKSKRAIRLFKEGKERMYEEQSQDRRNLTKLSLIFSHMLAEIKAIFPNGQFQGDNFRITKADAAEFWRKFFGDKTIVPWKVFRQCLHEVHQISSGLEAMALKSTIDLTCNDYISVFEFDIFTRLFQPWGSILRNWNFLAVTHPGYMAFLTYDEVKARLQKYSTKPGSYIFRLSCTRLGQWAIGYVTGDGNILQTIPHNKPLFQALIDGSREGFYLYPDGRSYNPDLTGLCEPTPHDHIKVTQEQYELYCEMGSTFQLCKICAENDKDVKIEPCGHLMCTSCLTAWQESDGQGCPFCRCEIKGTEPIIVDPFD

SMILES	IC50 [1] [nM]	IC50 [2] [nM]
CNC[C@H](O)COc1ccc2c(c1)C(=O)N(c1cc(-c3ccc(C#N)cc3-c3nncn3C)cc(C3CC3)n1)C2 [AJU-3, 4-(2-Cyclopropyl-6-{6-[(2S)-2-hydroxy-3-(methylamino)propoxy]-1-oxo-3H-isoindol-2-yl}pyridin-4-yl)-3-(4-methyl-1,2,4-triazol-3-yl) benzonitrile]	≤ 200	≤ 200
CNC[C@@H](O)COc1ccc2c(c1)C(=O)N(c1cc(-c3ccc(C#N)cc3-c3nncn3C)cc(C3CC3)n1)C2 [AJV-3, 4-(2-Cyclopropyl-6-{6-[(2R)-2-hydroxy-3-(methylamino)propoxy]-1-oxo-3H-isoindol-2-yl}pyridin-4-yl)-3-(4-methyl-1,2,4-triazol-3-yl)benzonitrile]	≤ 200	≤ 200
CN(Cc1cc2c(c(C(F)(F)F)c1)CN(c1cc(-c3c(-c4nncn4C)cnn3C)cc(C3CC3)n1)C2=O)CC1(O)CCC1 [AJW-1, 2-{6-Cyclopropyl-4-[2-methyl-4-(4-methyl-1,2,4-triazol-3-yl)pyrazol-3-yl]pyridin-2-yl}-6-({[(1-hydroxycyclobutyl)methyl](methyl)amino}methyl)-4-(trifluoromethyl)-3H-isoindol-1-one]	≤ 200	≤ 200
Cn1cnnc1-c1cc(C#N)ccc1-c1cc(C2CC2)nc(N2Cc3ccc(CNCC4(F)CCC4)cc3C2=O)c1 [AJX-1, 4-{2-Cyclopropyl-6-[6-({[(1-fluorocyclobutyl)methyl]amino}methyl)-1-oxo-3H-isoindol-2-yl]pyridin-4-yl}-3-(4-methyl-1,2,4-triazol-3-yl)benzonitrile]	≤ 200	≤ 200
CN(Cc1ccc2c(c1)C(=O)N(c1cc(-c3ccc(C#N)cc3-c3nncn3C)cc(C3CC3)n1)C2)CC1CCCC1 [AJY-1, 4-[2-(6-{1[(Cyclopentylmethyl)(methyl)amino]methyl}-1-oxo-3H-isoindol-2-yl)-6-cyclopropylpyridin-4-yl]-3-(4-methyl-1,2,4-triazol-3-yl)benzonitrile]	≤ 200	≤ 200
CC(NCC1CCC1)c1ccc2c(c1)C(=O)N(c1cc(-c3ccc(C#N)cc3-c3nncn3C)cc(C3CC3)n1)C2 (stereo not drawn) [AJZ-1, 4-(2-(6-(1-((Cyclobutylmethyl)amino)ethyl)-1-oxoisoindolin-2-yl)-6-cyclopropylpyridin-4-yl)-3-(4-methyl-4H-1,2,4-triazol-3-yl)benzonitrile]	≤ 200	≤ 200
C[C@@H](NCC1CCC1)c1ccc2c(c1)C(=O)N(c1cc(-c3ccc(C#N)cc3-c3nncn3C)cc(C3CC3)n1)C2 [AKA-1, (R)-4-(2-(6-(1-((Cyclobutylmethyl)amino)ethyl)-1-oxoisoindolin-2-yl)-6-cyclopropylpyridin-4-yl)-3-(4-methyl-4H-1,2,4-triazol-3-yl)benzonitrile]	≤ 200	≤ 200
C[C@H](NCC1CCC1)c1ccc2c(c1)C(=O)N(c1cc(-c3ccc(C#N)cc3-c3nncn3C)cc(C3CC3)n1)C2 [AKB-1, (S)-4-(2-(6-(1-((Cyclobutylmethyl)amino)ethyl)-1-oxoisoindolin-2-yl)-6-cyclopropylpyridin-4-yl)-3-(4-methyl-4H-1,2,4-triazol-3-yl)benzonitrile]	≤ 200	≤ 200
Cn1cnnc1-c1cc(C#N)ccc1-c1cc(C2CC2)nc(N2Cc3ccc(CNCC4CC(F)(F)C4)cc3C2=O)c1 [AKC-2, 4-{2-Cyclopropyl-6-[6-({[(3,3-difluorocyclobutyl)methyl]amino}methyl)-1-oxo-3H-isoindol-2-yl]pyridin-4-yl}-3-(4-methyl-1,2,4-triazol-3-yl)benzonitrile]	≤ 200	≤ 200
Cn1cnnc1-c1cc(C#N)ccc1-c1cc(C2CC2)nc(N2Cc3ccc(CNCC45CC(C4)C5)cc3C2=O)c1 [AKD-2, 4-(2-{6-[({Bicyclo[1.1.1]pentan-1-ylmethyl}amino)methyl]-1-oxo-3H-isoindol-2-yl}-6-cyclopropylpyridin-4-yl)-3-(4-methyl-1,2,4-triazol-3-yl)benzonitrile]	≤ 200	≤ 200
COC1(CNCc2ccc3c(c2)C(=O)N(c2cc(-c4ccc(C#N)cc4-c4nncn4C)cc(C4CC4)n2)C3)CCCC1 [AKE-2, 4-{2-Cyclopropyl-6-[6-({[(1-methoxycyclopentyl)methyl]amino}methyl)-1-oxo-3H-isoindol-2-yl]pyridin-4-yl}-3-(4-methyl-1,2,4-triazol-3-yl)benzonitrile]	≤ 200	≤ 200
Cn1cnnc1-c1cc(C#N)ccc1-c1cc(C2CC2)nc(N2Cc3ccc(CNCC4(C#N)CCC4)cc3C2=O)c1 [AKF-2, 4-{2-[6-({[(1-Cyanocyclobutyl)methyl]amino}methyl)-1-oxo-3H-isoindol-2-yl]-6-cyclopropylpyridin-4-yl}-3-(4-methyl-1,2,4-triazol-3-yl)benzonitrile]	≤ 200	≤ 200
COC[C@H](C)NCc1cc(F)c2c(c1)C(=O)N(c1cc(-c3ccc(C#N)cc3-c3nncn3C)cc(C3CC3)n1)C2 [AKG-1, 4-{2-Cyclopropyl-6-[4-fluoro-6-({[(2S)-1-methoxypropan-2-yl]amino}methyl)-1-oxo-3H-isoindol-2-yl]pyridin-4-yl}-3-(4-methyl-1,2,4-triazol-3-yl)benzonitrile]	≤ 200	≤ 200
COC[C@@H](C)NCc1cc(F)c2c(c1)C(=O)N(c1cc(-c3ccc(C#N)cc3-c3nncn3C)cc(C3CC3)n1)C2 [AKH-1, 4-{2-Cyclopropyl-6-[4-fluoro-6-({[(2R)-1-methoxypropan-2-yl]amino}methyl)-1-oxo-3H-isoindol-2-yl]pyridin-4-yl}-3-(4-methyl-1,2,4-triazol-3-yl)benzonitrile]	≤ 200	≤ 200
Cn1cnnc1-c1cnn(C)c1-c1cc(C2CC2)nc(N2Cc3c(cc(CO)cc3C(F)(F)F)C2=O)c1 [AKI-1, 2-{6-Cyclopropyl-4-[2-methyl-4-(4-methyl-1,2,4-triazol-3-yl)pyrazol-3-yl]pyridin-2-yl}-6-(hydroxymethyl)-4-(trifluoromethyl)-3H-isoindol-1-one]	≤ 200	≤ 200
CCOc1cc(-c2ccc(C#N)cc2-c2nncn2C)cc(N2Cc3ccc(CNCC4(F)CCC4)cc3C2=O)n1 [AKJ-1, 4-{2-Ethoxy-6-[6-({[(1-fluorocyclobutyl)methyl]amino}methyl)-1-oxo-3H-isoindol-2-yl]pyridin-4-yl}-3-(4-methyl-1,2,4-triazol-3-yl)benzonitrile]	≤ 200	≤ 200
Cn1cnnc1-c1cc(C#N)ccc1-c1cc(C2CC2)nc(N2Cc3c(F)cc(CNCC4(F)CCC4)cc3C2=O)c1 [AKK-1, 4-{2-Cyclopropyl-6-[4-fluoro-6-({[(1-fluorocyclobutyl)methyl]amino}methyl)-1-oxo-3H-isoindol-2-yl]pyridin-4-yl}-3-(4-methyl-1,2,4-triazol-3-yl)benzonitrile]	≤ 200	≤ 200
COc1cc2c(cc1CO)C(=O)N(c1cc(-c3ccc(C#N)cc3-c3nncn3C)cc(C3CC3)n1)C2 [AKL-2, 4-{2-Cyclopropyl-6-[6-(hydroxymethyl)-5-methoxy-1-oxo-3H-isoindol-2-yl]pyridin-4-yl}-3-(4-methyl-1,2,4-triazol-3-yl)benzonitrile]	≤ 200	≤ 200
COc1cc2c(cc1CNCC1CCC1)C(=O)N(c1cc(-c3ccc(C#N)cc3-c3nncn3C)cc(C3CC3)n1)C2 [AKM-2, 4-[2-(6-{[(Cyclobutylmethyl)amino]methyl}-5-methoxy-1-oxo-3H-isoindol-2-yl)-6-cyclopropylpyridin-4-yl]-3-(4-methyl-1,2,4-triazol-3-yl)benzonitrile]	1000 to 10000	1000 to 10000
Cn1cnnc1-c1cc(C#N)ccc1-c1cc(C2CC2)nc(N2Cc3cc(Cl)c(CO)cc3C2=O)c1 [AKN-12, 4-{2-[5-Chloro-6-(hydroxymethyl)-1-oxo-3H-isoindol-2-yl]-6-cyclopropylpyridin-4-yl}-3-(4-methyl-1,2,4-triazol-3-yl)benzonitrile]	≤ 200	≤ 200
Cn1cnnc1-c1cc(C#N)ccc1-c1cc(C2CC2)nc(N2Cc3cc(Cl)c(CNCC4CCCC4)cc3C2=O)c1 [AKO-2, 4-(2-(5-Chloro-6-(((cyclopentylmethyl)amino)methyl)-1-oxoisoindolin-2-yl)-6-cyclopropylpyridin-4-yl)-3-(4-methyl-4H-1,2,4-triazol-3-yl)benzonitrile]	≤ 200	≤ 200
CN(Cc1ccc2c(c1)C(=O)N(c1cc(-c3ccc(C#N)cc3-c3nncn3C)cc(C3CC3)n1)C2)CC1(O)CCC1 [AKP-1, 4-{2-Cyclopropyl-6-[6-({[(1-hydroxycyclobutyl)methyl](methyl)amino}methyl)-1-oxo-3H-isoindol-2-yl]pyridin-4-yl}-3-(4-methyl-1,2,4-triazol-3-yl)benzonitrile]	≤ 200	≤ 200
Cn1cnnc1-c1cc(C#N)ccc1-c1cc(C2CC2)nc(N2Cc3c(F)cc(CN4CC5CC5C4)cc3C2=O)c1 (stereo not drawn) [AKQ-2, 4-[2-(6-{3-Azabicyclo[3.1.0]hexan-3-ylmethyl}-4-fluoro-1-oxo-3H-isoindol-2-yl)-6-cyclopropylpyridin-4-yl]-3-(4-methyl-1,2,4-triazol-3-yl)benzonitrile]	≤ 200	≤ 200
Cn1cnnc1-c1cc(C#N)ccc1-c1cc(C2CC2)nc(N2Cc3c(F)cc(CN4C[C@@H]5C[C@H]4CO5)cc3C2=O)c1 [AKR-3, 4-(2-Cyclopropyl-6-{4-fluoro-6-[(1S,4S)-2-oxa-5-azabicyclo[2.2.1]heptan-5-ylmethyl]-1-oxo-3H-isoindol-2-yl}pyridin-4-yl)-3-(4-methyl-1,2,4-triazol-3-yl)benzonitrile]	≤ 200	≤ 200
